In the supplement of paper PMC7108870:

What was measured:
HEK293sieSTAT3(Y640F) [1] = test: drug sensitivity score (DSS), cytotoxicity CellTox Green (DSS (dimensionless)); higher = more cytotoxic; extreme values may be limits of the assay; conditions: 72 h; STAT3 variant: Y640F (constitutively active)
Outline: (§1)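 HEK293 cells carrying a STAT3-dependent luciferase reporter and overexpressing wild-type or mutant STAT3 (20 μl at 100,000 cells/ml) were added to compounds acoustically pre-plated at 5 concentrations in 10-fold dilutions in 384-well plates. After 72 hours at 37°C and 5% CO2, CellTox Green fluorescence (485/520 nm) and then CellTiter-Glo luminescence were read on a PHERAstar FS. Values were normalised to negative and positive control wells, and a drug sensitivity score based on dose-response curve area was computed in Breeze. Each value comes from one representative of two experiments.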

HEK293sieSTAT3(wt) [2] = test: as above; conditions: 72 h; STAT3 variant: wild type
Outline: as §1

HEK293sieSTAT3(Y640F) [3] = test: drug sensitivity score (DSS), viability CellTiter-Glo (DSS (dimensionless)); higher = more growth inhibition; extreme values may be limits of the assay; conditions: 72 h; STAT3 variant: Y640F (constitutively active)
Outline: as §1

HEK293sieSTAT3(wt) [4] = test: as above; conditions: 72 h; STAT3 variant: wild type
Outline: as §1

| Structure (SMILES) | drug sensitivity score (HEK293sieSTAT3(Y640F) [1]) | drug sensitivity score (HEK293sieSTAT3(wt) [2]) | drug sensitivity score (HEK293sieSTAT3(Y640F) [3]) | drug sensitivity score (HEK293sieSTAT3(wt) [4]) |
| --- | --- | --- | --- | --- |
| CCCCC(=O)OCC(=O)[C@]1(O)Cc2c(O)c3c(c(O)c2[C@@H](O[C@H]2C[C@H](NC(=O)C(F)(F)F)[C@H](O)[C@H](C)O2)C1)C(=O)c1c(OC)cccc1C3=O [Valrubicin] (top concentration tested 5000 nM) | 0 | 0.89 | 21.9 | 22.8 |
| CCS(=O)(=O)c1cccc(-c2cc(C(=O)NC3CCN(C)CC3)c(C)c3[nH]c4ncc(C)cc4c23)c1 [TAK-901] (top concentration tested 1000 nM) | 0 | 2.83 | 4.54 | 4.52 |
| O=C(O)c1ccc(CN2CCC(CN[C@@H]3C[C@H]3c3ccccc3)CC2)cc1 (top concentration tested 10000 nM) | 0 | 0 | 0 | 0 |
| Cc1ccc(Nc2nccc(N(C)c3ccc4c(C)n(C)nc4c3)n2)cc1S(N)(=O)=O [Pazopanib] (top concentration tested 10000 nM) | 0 | 0 | 0.04 | 0.89 |
| C[C@@H]1C[C@H]2O[C@@H]2/C=C\C=C\C(=O)Cc2c(Cl)c(O)cc(O)c2C(=O)O1 [Radicicol] (top concentration tested 10000 nM) | 7.65 | 14.4 | 19.5 | 25.1 |
| Nc1ncnc2c1nc(N)n2[C@@H]1O[C@H](CO)[C@@H](O)[C@H]1O [8-amino-adenosine] (top concentration tested 50000 nM) | 11.1 | 15.1 | 21.9 | 23.9 |
| O=c1[nH]cc(F)c(=O)[nH]1 [Fluorouracil] (top concentration tested 10000 nM) | 0 | 0 | 6.62 | 6.27 |
| CN1CCN(C2CCN(C(=O)Nc3cc(Oc4ccc(NC(=O)C5(C(=O)Nc6ccc(F)cc6)CC5)c(F)c4)ccn3)CC2)CC1 [Golvatinib] (top concentration tested 2500 nM) | 0 | 0.24 | 2.77 | 1.49 |
| CCc1nc(-c2cccc(C)c2)c(-c2ccnc(NC(=O)c3ccccc3)c2)s1 [TAK-715] (top concentration tested 10000 nM) | 0 | 0 | 4.68 | 4.5 |
| CN(C)/N=N/c1[nH]cnc1C(N)=O [Dacarbazine] (top concentration tested 10000 nM) | 0 | 0 | 0.02 | 2.09 |
| Cc1[nH]c2ccccc2c1CCNCc1ccc(/C=C/C(=O)NO)cc1 [Panobinostat] (top concentration tested 1000 nM) | 11.6 | 17.8 | 20.6 | 20.4 |
| C=CCNC1=C2C[C@@H](C)C[C@H](OC)[C@H](O)[C@@H](C)/C=C(\C)[C@H](OC(N)=O)[C@@H](OC)/C=C\C=C(/C)C(=O)NC(=CC1=O)C2=O [Tanespimycin] (top concentration tested 10000 nM) | 7.34 | 12.8 | 22.1 | 22.6 |
| CC(C)(C)c1cnc(CSc2cnc(NC(=O)C3CCNCC3)s2)o1 [SNS-032] (top concentration tested 10000 nM) | 10.3 | 22.6 | 25.3 | 26.7 |
| O=c1cc(N2CCOCC2)oc2c(-c3ccccc3)cccc12 (top concentration tested 100000 nM) | 2.63 | 5.12 | 10.6 | 11.8 |
| Nc1nc(Nc2ccc3c(c2)CC[C@@H](N2CCCC2)CC3)nn1-c1cc2c(nn1)-c1ccccc1CCC2 [BGB324] (top concentration tested 10000 nM) | 6.14 | 11.9 | 10.2 | 12 |
| CN(C)C/C=C/C(=O)Nc1cc2c(Nc3ccc(F)c(Cl)c3)ncnc2cc1O[C@H]1CCOC1 [Afatinib] (top concentration tested 1000 nM) | 0 | 0 | 0.98 | 1.06 |
| CC(C)Oc1ccc(C(=O)N[C@H](CNC(=O)CN(C)C)Cc2ccc(-c3cn4cccc([C@H](C)O)c4n3)cc2)cc1Cl (top concentration tested 10000 nM) | 2.45 | 11.4 | 14.7 | 15.3 |
| CCOc1ccn(-c2ccc(F)cc2)c(=O)c1C(=O)Nc1ccc(Oc2ccnc(N)c2Cl)c(F)c1 (top concentration tested 2500 nM) | 0 | 0 | 0.75 | 4.83 |
| Nc1nc2[nH]cc(CCc3ccc(C(=O)N[C@@H](CCC(=O)O)C(=O)O)cc3)c2c(=O)[nH]1 [Pemetrexed] (top concentration tested 10000 nM) | 0 | 2.93 | 12.9 | 13.3 |
| CN(C)Cc1c(C(=O)NCCOc2ccc(C(=O)NO)cc2)oc2ccccc12 [Abexinostat] (top concentration tested 10000 nM) | 10.7 | 17.5 | 22.9 | 22.3 |
| Cc1cc2c(C(=O)NC[C@H](C)c3ccccc3)c(O)c(O)cc2c(O)c1-c1c(C)cc2c(C(=O)NC[C@H](C)c3ccccc3)c(O)c(O)cc2c1O [Sabutoclax] (top concentration tested 25000 nM) | 12.2 | 9.82 | 26.4 | 27.8 |
| COc1cc(Nc2ncc3c(n2)-c2ccc(Cl)cc2C(c2c(F)cccc2OC)=NC3)ccc1C(=O)O [Alisertib] (top concentration tested 10000 nM) | 0 | 8.65 | 9.16 | 12.1 |

| Structure (SMILES) | drug sensitivity score (HEK293sieSTAT3(Y640F) [1]) | drug sensitivity score (HEK293sieSTAT3(wt) [2]) | drug sensitivity score (HEK293sieSTAT3(Y640F) [3]) | drug sensitivity score (HEK293sieSTAT3(wt) [4]) |
| --- | --- | --- | --- | --- |
| Cc1cc(C(=O)NOCCO)c(Nc2ccc(I)cc2F)n(C)c1=O [AZD-8330] (top concentration tested 10000 nM) | 0 | 0 | 7.16 | 0.01 |
| CCN1CCN(Cc2ccc(Nc3ncc(F)c(-c4cc(F)c5nc(C)n(C(C)C)c5c4)n3)nc2)CC1 [Abemaciclib] (top concentration tested 2500 nM) | 0 | 0 | 0.98 | 0.4 |
| CCCS(=O)(=O)Nc1ccc(F)c(C(=O)c2c[nH]c3ncc(-c4ccc(Cl)cc4)cc23)c1F [Vemurafenib] (top concentration tested 10000 nM) | 3.47 | 4.84 | 0 | 1.57 |
| COc1nc(N)nc2c1ncn2[C@@H]1O[C@H](CO)[C@@H](O)[C@@H]1O [Nelarabine] (top concentration tested 10000 nM) | 0 | 0 | 0.7 | 1.07 |
| O=C(O)c1ccc(-c2c[nH]c3ncc(-c4ccccc4)cc23)cc1C1CCCC1 (top concentration tested 10000 nM) | 0 | 3.29 | 2.42 | 3.17 |
| O=C(O)CC1CC(c2ccccc2)=NO1 (configuration not stated) [VGX-1027] (top concentration tested 10000 nM) | 0 | 0 | 3.98 | 1.07 |
| CON(C)C(=O)N1N=C(c2cc(F)ccc2F)S[C@@]1(CCCN)c1ccccc1 [Filanesib] (top concentration tested 1000 nM) | 0.58 | 17 | 15 | 21.2 |
| O=C(Nc1cccnc1)N1CCC(Cc2cccc(Oc3ccc(C(F)(F)F)cn3)c2)CC1 [PF-3845] (top concentration tested 10000 nM) | 0 | 0 | 1.51 | 3.05 |
| O=S(=O)(c1cccc2c(O)nccc12)N1CCCNCC1 [Hydroxyfasudil] (top concentration tested 37500 nM) | 0 | 0 | 0.45 | 5.7 |
| CCc1c2c(nc3ccc(OC(=O)N4CCC(N5CCCCC5)CC4)cc13)-c1cc3c(c(=O)n1C2)COC(=O)[C@]3(O)CC [Irinotecan] (top concentration tested 10000 nM) | 2.17 | 6.44 | 12.2 | 14.5 |
| Cc1cc(-c2nc(-c3ccc(OC(F)(F)F)cc3)no2)nn1Cc1ccnc(N2CCN(C3CC3)CC2)c1 [BAY 87-2243] (top concentration tested 1000 nM) | 0 | 0 | 12.6 | 12.5 |
| COc1cccc2c1C(=O)c1c(O)c3c(c(O)c1C2=O)C[C@@](O)(/C(CO)=N/NC(=O)CCCCCN1C(=O)C=CC1=O)C[C@@H]3O[C@H]1C[C@H](N)[C@H](O)[C@H](C)O1 [Aldoxorubicin] (top concentration tested 1000 nM) | 0 | 0 | 19.7 | 21.1 |
| NS(=O)(=O)OC[C@@H]1C[C@@H](n2ccc3c(N[C@H]4CCc5ccccc54)ncnc32)C[C@@H]1O [Pevonedistat] (top concentration tested 10000 nM) | 3.23 | 7.13 | 22.3 | 23.6 |
| CO[C@@H]1[C@H](N(C)C(=O)c2ccccc2)C[C@H]2O[C@]1(C)n1c3ccccc3c3c4c(c5c6ccccc6n2c5c31)C(=O)NC4 [Midostaurin] (top concentration tested 10000 nM) | 0 | 2.79 | 5.01 | 4.05 |
| CC(=O)c1cnc2ccc(-c3cc(Cl)c(O)c(Cl)c3)nc2c1N[C@H]1CC[C@H](CN(C)C)CC1 [OTSSP167] (top concentration tested 1000 nM) | 5.22 | 5.73 | 21.1 | 21.2 |
| NC[C@@](O)(c1ccc(Cl)cc1)c1ccc(-c2cn[nH]c2)cc1 (top concentration tested 10000 nM) | 6.08 | 6.61 | 7.85 | 6.8 |
| CC(O)(CS(=O)(=O)c1ccc(F)cc1)C(=O)Nc1ccc(C#N)c(C(F)(F)F)c1 (configuration not stated) [Bicalutamide] (top concentration tested 10000 nM) | 0 | 0 | 3.98 | 4.54 |
| NC(=O)c1ccc(I)c([N+](=O)[O-])c1 [Iniparib] (top concentration tested 10000 nM) | 0 | 0 | 0 | 0 |
| Cc1nc(N)sc1-c1ccnc(Nc2ccc(N3CCOCC3)cc2)n1 [CYC-116] (top concentration tested 10000 nM) | 0 | 0.48 | 8.51 | 9.72 |
| Cc1cc(Nc2cc(N3CCN(C)CC3)nc(Sc3ccc(NC(=O)C4CC4)cc3)n2)n[nH]1 [Tozasertib] (top concentration tested 10000 nM) | 0 | 0.22 | 10.3 | 12.1 |
| FC(F)(F)c1ccc(CNc2ccc(Cc3c[nH]c4ncc(Cl)cc34)cn2)cn1 [Pexidartinib] (top concentration tested 10000 nM) | 0 | 0 | 3.45 | 2.35 |
